Values after ≈ are worked out from the molar mass of the structure shown. Where two headings read alike, the source gives them in different places. Marks after values point to notes of the source that are not given here.
Assays:
[1] = MT-4 cell toxicity (trypan blue exclusion); type: cell-based; conditions: human, reduction of cell viability, Table 2
Procedure: (§1) Cytostatic and antimetabolic effect of acyclic nucleoside phosphonates in vitro. The assays to examine the inhibition of CEM cell growth by the test compounds have been described previously (Balzarini et al., AIDS 5:21-28, 1991). The 50% cytostatic concentration (CC50) was defined as the concentration of compound that reduced the number of living cells by 50% . To measure MT-4 cell toxicity of the test compounds, 5×10^4 MT-4 cells were incubated in the wells of 96-well microplates in the presence or absence of different concentrations of the test compounds for 5 days at 37° C. The CC50 was then calculated from the number of living cells counted under a microscope by the trypan blue exclusion method.

FIV (strain Petaluma) = experiment: Anti-FIV assay, p24 antigen in CrFK cells; type: cell-based; conditions: Feline immunodeficiency virus, CRFK; Table 2
Procedure: For the anti-FIV assays, 10^5 CrFK cells were seeded onto 24-well tissue culture plates. Cells were cultured with 2 ml of culture medium/well containing 2.5% of fetal calf serum in the presence of various drug concentrations. The assays were carried out in triplicate. After a 1-hr incubation period at 37° C., cells were infected with FIV. Virus was left in contact with the cultures for 1 day, after which the medium was removed and new medium containing the appropriate drug concentrations was added. After 6 days, the presence of FIV p24 antigen was examined by an antigen capture assay.

HIV-1(IIIB) [2] = experiment: HIV-1(IIIB)-induced cytopathicity in MT-4 cell cultures; type: cell-based; conditions: Human immunodeficiency virus 1, IIIB, MT4; Table 2
Source text: (§2) Viruses. The origins of MSV, HIV type 1 (HIV-1) (strain IIIB and Ba-L), HIV-2 (strain ROD) and FIV (strain Petaluma) have been described previously (Balzarini et al., AIDS 5: 21-28, 1991; De Clercq et al., Proc. Soc. Exp. Biol. Med. 137:590-594, 1971; Egberink et al., Proc. Natl. Acad. Sci. 87:3087-3091, 1990; Hartmann et al., Antiviral Chem. Chemother. 5:13-19, 1994; Popovic et al., Science 224:497-500, 1984). HIV-1(IIIB) and HIV-2(ROD) stocks were obtained from supernatants of virus-infected MT-4 cell cultures. HIV-1BaL was expanded in human primary M/M, whose supernatants were collected, filtered and stored at −80° C. before use. Characteristics of viral stocks used for this study were 2.1×10^8 HIV-RNA genomes/ml (corresponding to 35 ng of p24 antigen) and 5,000 tissue culture infectious doses 50% per ml (TCID50/ml) as assessed by virus titration in other primary M/M cultures. The isolation and characterization of the clinical HIV-1 isolates L1S, L6S and L6S/PMEA has been reported (Thormar et al., Proc. Natl. Acad. Sci. USA 93:3283-3287, 1995; Van Laethem et al., AIDS 15:553-561, 2001). […] HIV-1/L6S/PMEA is the clinical isolate HIV-1/L6S that has been isolated after culturing the virus for 11 passages in the presence of increasing concentrations of PMEA (adefovir).
(§3) In vitro antiviral assays. The activity against HIV-1- and HIV-2-induced cytopathicity was examined in MT-4 cell cultures at day 5 post infection and based on the determination of cell viability by trypan blue dye staining or in CEM cell cultures at day 4 to 5 post infection and based on the microscopical examination of virus-induced giant cell formation. HIV-1 and HIV-2 were added at 100 CCID50 to the cell cultures.

[3] = Inhibition of CEM cell growth (cytostatic activity); type: cell-based; conditions: human
Procedure: as §1

HIV-1(IIIB) [4] = experiment: HIV-1(IIIB)-induced cytopathicity in CEM cell cultures; type: cell-based
Procedure, shortened: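 Protection against cytopathicity caused by HIV-1 strain IIIB was measured in CEM cell cultures. The IIIB stock came from supernatants of infected MT-4 cell cultures, and virus was added to the cultures at 100 CCID50. At day 4 to 5 post infection, virus-induced giant cell formation was examined microscopically, and the EC50 was derived from this.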

HIV-1/L1S = type: cell-based; conditions: measured against the laboratory HIV-1/IIIB strain in CEM cell cultures
Source text: as §2, §3

HIV-1/L6S = type: cell-based; conditions: measured against the laboratory HIV-1/IIIB strain in CEM cell cultures
Source text: as §2, §3

HIV-1/L6S/PMEA = type: cell-based; conditions: measured against the laboratory HIV-1/IIIB strain in CEM cell cultures
Source text: as §2, §3

HIV-2(ROD) [5] = experiment: HIV-2(ROD)-induced cytopathicity in MT-4 cell cultures; type: cell-based
Source text: as §2, §3

Toxicity in CrFK cells = type: cell-based, feline; conditions: cat, Table 2
MSV = type: in vivo; conditions: for Number of Mice not Developing a Tumor (percent): intraperitoneal, 5 daily doses, newborn NMRI mice
[6] = tested on: HIV-1(IIIB) strains containing L100I, K103N, Y181C and Y188H mutations in the RT; experiment: HIV-1(IIIB) strains with NNRTI-specific RT mutations in CEM cell cultures; type: cell-based; conditions: data not shown
Procedure: as §3

HIV-2(ROD) [7] = experiment: HIV-2(ROD)-induced cytopathicity in CEM cell cultures; type: cell-based; conditions: Human immunodeficiency virus 2, CCRF-CEM, read-out: EC50 HIV-2 (ROD) (CEM)
Source text: as §2, §3

HIV-1(IIIB) [8] = experiment: HIV-1(IIIB) p24 antigen production in PBL (PHA-stimulated PBMC); type: cell-based; conditions: Human immunodeficiency virus 1, IIIB, PBMC
Procedure: Peripheral blood mononuclear cells (PBMC) from healthy donors were isolated by density centrifugation (Lymphoprep; Nycomed Pharma, AS Diagnostics, Oslo, Norway) and stimulated with phytohemagglutin (PHA) (Sigma Chemical Co., Bornem, Belgium) for 3 days. The activated cells (PHA-stimulated blasts) were washed with PBS and viral infections were done as described by the AIDS clinical trial group protocols. Briefly, PBMCs (2×10^5/200 well) were plated in the presence of serial dilutions of the test compound and were infected with HIV stocks at 1000 CCID50 per mL. At day 4 post-infection, 125 μl of the supernatant of the infected cultures was removed and replaced with 150 μl of fresh medium containing the test compounds at the appropriate concentrations. At 7 days after plating the cells, p24 antigen was detected in the culture supernatant by an enzyme-linked immunosorbent assay (NEN, Paris, France).

HIV = experiment: Anti-HIV activity across HIV-1 and HIV-2 in CEM and MT-4 cell cultures; type: cell-based; conditions: Human immunodeficiency virus 1, MT4; HIV-1 and HIV-2 in CEM and MT-4 cells; read-out: EC50 values for HIV (range over virus/cell systems)
Procedure: as §3

[9] = Human immunodeficiency virus 1, CCRF-CEM, HIV-1 (IIIB) in CEM, no addition, Table 3, read-out: EC50 as such
[10] = Human immunodeficiency virus 1, CCRF-CEM, HIV-1 (IIIB) in CEM, Ade 100 μM, read-out: EC50 upon addition of Ade (100 μM)
[11] = Human immunodeficiency virus 1, CCRF-CEM, HIV-1 (IIIB) in CEM, Ado 400 μM, read-out: EC50 upon addition of Ado (400 μM)
[12] = Human immunodeficiency virus 1, CCRF-CEM, HIV-1 (IIIB) in CEM, Guo 10 μM, read-out: EC50 upon addition of Guo (10 μM)
[13] = Human immunodeficiency virus 1, CCRF-CEM, HIV-1 (IIIB) in CEM, dCyd 1 mM, read-out: EC50 upon addition of dCyd (1 mM)
[14] = Human immunodeficiency virus 1, CCRF-CEM, HIV-1 (IIIB) in CEM, dThd 10 μM, read-out: EC50 upon addition of dThd (10 μM)
[15] = Human immunodeficiency virus 1, CCRF-CEM, HIV-1(IIIB)-induced cytopathicity in CEM cell cultures, Table 1, read-out: EC50 HIV-1 (CEM)
[16] = Human immunodeficiency virus 1, IIIB, CCRF-CEM, giant cell formation, mean ±SD of 2 to 4 experiments, Table 2, read-out: EC50 HIV-1 (IIIB) (CEM)
[17] = 20 mg/kg, premature death not taken into account

SMILES | EC50 (FIV (strain Petaluma)) [µg/mL] | EC50 (HIV-1(IIIB) [2]) [µg/mL] | EC50 (HIV-1(IIIB) [4]; [9]) [µg/mL] | EC50 (HIV-1(IIIB) [4]; [10]) [µg/mL] | EC50 (HIV-1(IIIB) [4]; [11]) [µg/mL] | EC50 (HIV-1(IIIB) [4]; [12]) [µg/mL] | EC50 (HIV-1(IIIB) [4]; [13]) [µg/mL] | EC50 (HIV-1(IIIB) [4]; [14]) [µg/mL] | EC50 (HIV-1(IIIB) [4]; [15]) [µg/mL] | EC50 (HIV-1(IIIB) [4]; [16]) [µg/mL] | -Fold Resistance HIV-1/L1S (HIV-1/L1S) [fold] | -Fold Resistance HIV-1/L6S (HIV-1/L6S) [fold] | -Fold Resistance HIV-1/L6S/PMEA (HIV-1/L6S/PMEA) [fold] | Number of Long-Term Survivors (%) (>30 days) (MSV; 8 mg/kg) | Number of Mice not Developing a Tumor (percent) (MSV; 8 mg/kg) [%] | Number of Mice not Developing a Tumor (percent) (MSV; 20 mg/kg) [%] | Number of Long-Term Survivors (%) (>30 days) (MSV; [17]) | also measured
Nc1cc(SCCOCP(=O)(O)O)nc(N)n1 [Compound 2, 2,4-diamino-6-{[2-(phosphonomethoxy)ethyl]-sulfanyl}pyrimidine] | 0.97 ± 0.4 (≈ 3.46 µM) | 2.5 ± 0.3 (≈ 8.92 µM) | 1.9 ± 0.75 (≈ 6.78 µM) | 3.3 ± 3.2 (≈ 11.8 µM) | 4.4 ± 2.8 (≈ 15.7 µM) | 1.9 ± 0.49 (≈ 6.78 µM) | 2.1 ± 1.7 (≈ 7.49 µM) | 1.4 ± 0.21 (≈ 5 µM) | 5.5 (≈ 19.6 µM) | 4.6 ± 3.1 (≈ 16.4 µM) | 2.1 | 1.4 | 14 | 20 | 0 | 0 | 20 | CC50 at 5 days ([1]; MT-4 cells): ≥ 100 µg/mL; CC50 ([3]; CEM cells, 50% cytostatic concentration, CEM cell proliferation, Table 1, read-out: CC50 (CEM)): 64 µg/mL (≈ 228 µM); CC50 ([3]; CEM cells, inhibition of cell proliferation, Table 2, read-out: CC50 CEM): 64 ± 9.8 µg/mL (≈ 228 µM); CC50 ([3]; CEM cells, read-out: CC50 for CEM cells): ~60 µg/mL (≈ 214 µM); EC50 (HIV-2(ROD) [5]; Human immunodeficiency virus 2, MT4, read-out: EC50 HIV-2 (ROD) (MT-4)): 2.9 µg/mL (≈ 10.3 µM); CC50 (Toxicity in CrFK cells; CrFK cells): 42 µg/mL (≈ 150 µM); Number of Long-Term Survivors (%) (>30 days) (MSV; 2 mg/kg): 0%; Number of Mice not Developing a Tumor (percent) (MSV; 2 mg/kg): 0%; Number of Mice not Developing a Tumor (percent) (MSV; 50 mg/kg): 0%; Number of Long-Term Survivors (%) (>30 days) (MSV; 50 mg/kg, premature death not taken into account): 20%; Prevention of tumor formation, in words (MSV; all doses tested): unable to prevent tumor formation; Long-term survivors (MSV; dose of 8-50 mg/kg): 20%; Delay of MSV-induced tumor formation, in words (MSV; mouse, in vivo): only showed a pronounced delay in tumor formation at a dose of 50 mg/kg; Activity against NNRTI-specific mutant virus strains, in words [6]: retained full activity; EC50 (HIV-2(ROD) [7]): 3 ± 1.4 µg/mL (≈ 10.7 µM)
Nc1ncnc2c1ncn2CCOCP(=O)(O)O [PMEA, 9-[(2-phosphono-methoxy)ethyl]adenine, reference compound] | 0.46 ± 0.19 (≈ 1.68 µM) | 1.3 ± 1.1 (≈ 4.76 µM) | 0.94 ± 0.24 (≈ 3.44 µM) | 1.9 ± 1.3 (≈ 6.95 µM) | 1.6 ± 0.4 (≈ 5.86 µM) | 1 ± 0.8 (≈ 3.66 µM) | 2.1 ± 0.19 (≈ 7.69 µM) | 1.4 ± 0.4 (≈ 5.12 µM) | 0.96 (≈ 3.51 µM) | 0.96 ± 0.24 (≈ 3.51 µM) | 2.0 | 2.7 | 7.3 | 77 | 44 | 89 | 94 | CC50 at 5 days [1]: 28 ± 12 µg/mL (≈ 102 µM); CC50 ([3]; 50% cytostatic concentration, CEM cell proliferation, Table 1, read-out: CC50 (CEM)): 16 µg/mL (≈ 58.6 µM); EC50 (HIV-1(IIIB) [8]; p24 antigen production, Table 2, read-out: EC50 HIV-1 (IIIB) (PBL)): 0.55 ± 0.41 µg/mL (≈ 2.01 µM); EC50 (HIV-1(IIIB) [8]; read-out: EC50 HIV-1(IIIB) in PBL): 1.9 µg/mL (≈ 6.95 µM); EC50 (HIV-2(ROD) [5]; Human immunodeficiency virus 2, MT4, Table 2, read-out: EC50 HIV-2 (ROD) (MT-4)): 1.9 µg/mL (≈ 6.95 µM); CC50 (Toxicity in CrFK cells): 18 µg/mL (≈ 65.9 µM); Number of Long-Term Survivors (%) (>30 days) (MSV; 4 mg/kg): 35%; Number of Mice not Developing a Tumor (percent) (MSV; 4 mg/kg): 5%; Number of Mice not Developing a Tumor (percent) (MSV; 100 mg/kg): 100^d percent; EC50 (HIV-2(ROD) [7]; giant cell formation, Table 2): 1.9 ± 1.1 µg/mL (≈ 6.95 µM); EC50 (HIV): 0.96 to 2 µg/mL (≈ 3.51 to 7.32 µM)

From patent US20050038058A1, “Novel compounds and methods for therapy” (Institute of Organic Chemistry and Biochemistry, priority 2001, published 2005)
